Data: patent publication US20100266503A1, “Breast Cancer Methods, Medicaments and Agents” (priority 2007, published 2010)

Tests used:
[1] = tested on: notch intracellular domain in MCF-7 cells; assay: Staining for notch intracellular domain expression (surrogate marker for GS activity); type: cell-based; conditions: 48 hours; Gefitinib 15 μM, U0126 10 μM, PD98059 10 μM
Description: (§1) (A) GS activity as measured by a fluorescent assay in MCF7 breast cancer cell lines and MCF10A normal cell lines, with and without treatment with the ERK1/2 inhibitor U0126. (B) Sections of MCF7 breast cancer cell lines stained for notch intracellular domain expression (as a surrogate marker for GS activity). Shown are sections of cells untreated (NO), and cells treated with oestrogen (E2), faslodex (FAS), Gefitinib (Gef), GSI1, and the ERK1/2 inhibitors U0126 (U) and. PD98059 (PD). (C) Sections of MCF10A normal cell lines stained for notch intracellular domain expression. Shown are sections of cells untreated (NO), and cells treated with Gefitinib (Gef) and PD98059 (PD).
(§2) Cancer and normal cell lines were treated with oestrogen (E2), faslodex (FAS), Gefitinib (Gef 15 μM), GSI1, and the ERK1/2 inhibitors U0126 (U) (10 μM) and PD98059 (PD) (10 μM) for 48 hours and a fluorescent assay performed to measure GS activity. The figures show relative fluorescence therefore the amount of fluorescence in the treated cells relative to the untreated minus background (these figures are corrected for background).

[2] = tested on: GS activity in MCF10A normal cell lines; conditions: 10 μM, 48 hours
Description: as §1, §2

[3] = tested on: GS activity in MCF7 breast cancer cell lines
Description: as §1, §2

[4] = tested on: GS Activity in MDA-MB 231 cell line; conditions: 48 h vs vehicle control
Description: GS Activity Assay was performed on MDA-MB 231 cell line. Cells were treated with a vehicle control and a U0126 inhibitor for 48 h.

Question: With `C[C@]12CC[C@@H]3c4ccc(O)cc4C[C@@H](CCCCCCCCC[S+]([O-])CCCC(F)(F)C(F)(F)F)[C@H]3[C@@H]1CC[C@@H]2O` (some centres unmarked) [Faslodex] as the compound, how does the “notch intracellular domain expression localized to the nucleus compared to untreated cells” value [1] read?
Answer: all but the Faslodex appear to increase notch intracellular domain expression

Question: With `COc1cc2ncnc(Nc3ccc(F)c(Cl)c3)c2cc1OCCCN1CCOCC1` [Gefitinib] as the compound, how does the “notch intracellular domain expression localized to the nucleus compared to untreated cells” value [1] read?
Answer: appear to increase notch intracellular domain expression localized to the nucleus

Question: How did the “notch intracellular domain expression localized to the nucleus compared to untreated cells” value [1] turn out when `COc1cccc(-c2cc(=O)c3ccccc3o2)c1N` [PD98059] was run?
Answer: appear to increase notch intracellular domain expression localized to the nucleus

Question: With `N#CC(=C(/N)Sc1ccccc1N)/C(C#N)=C(\N)Sc1ccccc1N` [U0126] as the compound, how does the “notch intracellular domain expression localized to the nucleus compared to untreated cells” value [1] read?
Answer: appear to increase notch intracellular domain expression localized to the nucleus

Question: And the “increase in GS activity (relative fluorescence vs untreated)” value [2]?
Answer: approximately 4 fold

Question: What about the “increase in GS activity (relative fluorescence vs untreated)” value ([3]; 10 μM, 48 hours) of the same compound?
Answer: 6-12 fold

Question: And the “increase in GS activity” value ([3]; breast cancer cells, summary statement)?
Answer: 9 fold

Question: What about the “GS Activity” value [4] of the same compound?
Answer: dose dependant increase of GS Activity
